This is an account of results in ChEMBL document CHEMBL5634173, “Identification of a novel histone H2A mono-ubiquitination-inhibiting cell-active small molecule” (Bioorg Med Chem Lett, 2024).

The source made the active and inactive calls. The rule behind the calls is not given here.

Experiment [1] deals with U2OS. The experiment can be described thus: Antiproliferative activity against human U2OS cells assessed as reduction in cell viability at 30 uM incubated for 72 hrs. The experiment is classed as functional, cell-based.
The subject of experiment [2] is U2OS. The experiment can be described thus: Antiproliferative activity against human U2OS cells assessed as reduction in cell viability incubated for 72 hrs. The experiment is classed as functional, cell-based.
In experiment [3] the test system is U2OS. The experiment can be described thus: Antiproliferative activity against human U2OS cells assessed as reduction in cell viability at 50 uM incubated for 72 hrs. The format is functional, cell-based.
The test system of experiment [4] is U2OS. Put plainly: Inhibition of histone H2A ubiquitination at K119 residue in human U2OS cells assessed as decrease in H2AK119ub1 level incubated for 1 hr by Western blotting analysis. The following applies: dose 24-96 µM. The format is cell-based. For orientation: A western blot detects proteins with antibodies after separation by electrophoresis.
For experiment [5], the system named is U2OS. The experiment can be described thus: Antiproliferative activity against human U2OS cells assessed as reduction in cell viability at 30 uM incubated for 72 hrs relative to control. The experiment is classed as functional.

A word on the IC50: it is the point on the concentration scale where inhibition reaches its midpoint.

Turning to `O=C1C(=Cc2ccccc2[N+](=O)[O-])C(=O)c2ccccc21`, the result in the experiment with U2OS [1] was Active. Moreover, in the experiment on U2OS [2], the half-maximal inhibitory concentration (IC50) amounted to 39.6 µM.
In the case of `Cc1ccccc1C=C1C(=O)c2ccccc2C1=O`, the outcome in the experiment on U2OS [1] was inactive.
Consider `CCc1c(-c2cccc3[nH]ccc23)[nH]c(C(=O)O)c1-c1ccccc1Cl`, for which the result with U2OS [3] was inactive.
Consider `N#Cc1cccc(C=C2C(=O)c3ccccc3C2=O)c1`, for which the IC50 in the experiment on U2OS [2] amounted to 32.1 µM.
As to `COc1cccc(C=C2C(=O)c3ccccc3C2=O)c1`, the outcome in the experiment with U2OS [1] was inactive.
`COc1ccc(C=C2C(=O)c3ccccc3C2=O)cc1`: in the experiment with U2OS [1], the result was inactive.
With `O=C1C(=Cc2ccc([N+](=O)[O-])cc2)C(=O)c2ccccc21`, the outcome with U2OS [1] was Active. Moreover, the half-inhibitory concentration (IC50) in the experiment with U2OS [2] amounted to 33.5 µM.
For the molecule `O=C1C(=Cc2ccc([N+](=O)[O-])cc2[N+](=O)[O-])C(=O)c2ccccc21`, in the experiment with U2OS [2], the IC50 worked out at 24 µM.
On to `O=C1C(=Cc2c([N+](=O)[O-])cccc2[N+](=O)[O-])C(=O)c2ccccc21`, for which the inhibition entry with U2OS [4] was “Dose-Dependent Effect”. The Activity with U2OS [5] turned out to be 100%. Also, in the experiment on U2OS [2], the IC50 amounted to 5.86 µM.
As to `O=C1C(=Cc2cccnc2)C(=O)c2ccccc21`, the outcome in the experiment on U2OS [3] was Active. Moreover, in the experiment on U2OS [2], the Activity result is “Dose-Dependent Effect” and the IC50 worked out at 45.2 µM.
For `O=C1C(=Cc2ccccc2)C(=O)c2ccccc21`, the result in the experiment with U2OS [1] was inactive.
The same measure, in the same setting: to `O=C1C(=Cc2cccc(F)c2)C(=O)c2ccccc21` belongs “inactive”; to `COc1ccccc1C=C1C(=O)c2ccccc2C1=O`, “inactive”; to `Cc1cccc(C)c1C=C1C(=O)c2ccccc2C1=O`, “inactive”.
Consider `Cc1ccc(C=C2C(=O)c3ccccc3C2=O)cc1`, for which the result in the experiment with U2OS [1] was inactive.
As to `Cc1cccc(C=C2C(=O)c3ccccc3C2=O)c1`, in the experiment with U2OS [1], the result was inactive.
Take `O=C1C(=Cc2cccc([N+](=O)[O-])c2)C(=O)c2ccccc21`: the result in the experiment with U2OS [1] was Active. For the same molecule, the IC50 with U2OS [2] was 24 µM.
